These results are taken from patent US20100068747A1, “Generic Assay for Monitoring Endocytosis” (Evotec Technologies GmbH, priority 2005, published 2010).

The subject of experiment [1] is U2OS/ETAR-GFP cells. The experiment in a line: Lectin labeling of fixed cells, U2OS/ETAR-GFP. The experiment is classed as cell-based, human. The settings on record: TRITC-lectin 10 nM and 20 nM. Here is the method:
Lectin labeling of fixed cells was conducted as follows: To detach confluent cells in order to prepare experiments for internalization studies, cells were always treated with EDTA solution instead of trypsin solution. For all seeding, washing, and labeling steps in 96-well plates a working volume of 100 μl per well was assessed. Cells were seeded out into a 96-well plate at different concentrations. U2OS/ETAR-GFP suspensions were adjusted to yield 2*10^4 cells/well, both of the CHO cell lines must be at 2.5*10^4 cells/well. Cells became confluent after 24 hours of incubation. In the following, they were washed with phosphate buffered saline (PBS) and fixed with 3% PFA for 20 minutes at RT. Then, cells were washed again with PBS and incubated in 10 nM and 20 nM solutions of each TRITC-lectin candidate in PBS, respectively. Again, cells were washed with PBS to remove excess lectin, and wells were refilled with PBS for analysis. For specificity controls, lectin solutions were incubated for 30 minutes prior to the application with an excess of the monosaccharide that represents the respective glyco-epitope.
(§1) The following microscopy and image analysis techniques were employed. When utilizing the epifluorescence microscope magnifications were adjusted according to the purpose of observation, e.g. single cell vs. cell collective. Concerning the filters U-MNU was used for Hoechst, U-MSWB for GFP, and U-N41007 for TRITC detection. Hoechst images were taken at 50 ms exposure time, GFP images at 100 to 200 ms and TRITC images needed 500 to 1000 ms. Overlay images were assembled with AnalySIS and tuned in color intensity to obtain the desired color contrast. Images taken to compare two experimental conditions, e.g. control vs. stimulus, featured identical exposure parameters. If possible, well areas were chosen that reflect similar states of confluence. Utilizing the Opera confocal fluorescence imager, the instrument was calibrated running standard methods for skew cropping (spatial camera alignments) and camera intensity normalization.

Experiment [2] concerns U2OS/ETAR-GFP cells. The experiment in a line: Lectin labeling of live cells, U2OS/ETAR-GFP. The experiment is classed as cell-based, human. The note with it: TRITC-lectin, 10 nM at maximum. As for the experimental part:
(§2) Lectin labeling of live cells was conducted as follows: Cells were seeded as described above. After 24 hours cells were washed once with PBS and incubated in the incubator for another 2 hours in the respective standard medium without serum supplement to deprive them of serum factor mediated stimuli. This step was termed starvation period. Subsequently, cells were washed gently with PBS and incubated with 37° C. tempered assay medium comprised of Hank's Balanced Salt Solution (HBSS) pH 7.4, containing 20 mM HEPES and 30 mM D-glucose. The plate was left at RT for 30 minutes to slowly level its temperature and, thus, avoid capturing of temperature drop induced membrane dynamics. This period was termed leveling period. Then, assay medium was withdrawn and wells refilled with TRITC-lectin solutions at RT to start cell labeling. Several lectin concentrations in the low nano-molar range were tested. Molar concentrations were calculated from the data provided by Vector Labs. The plate was placed on a rotating shaker at low revolutions for 10 minutes while incubating. The start of the lectin incubation is referred to as assay starting point with t=0 min. After the 10 min incubation period the cells were gently washed with PBS and wells refilled with assay buffer at RT. Instantly thereafter, fluorescence signals were monitored predominately using the epifluorescence microscope.
as §1

Experiment [3] concerns U2OS/ETAR-GFP cells. The experiment can be described thus: Lectin labeling of live cells, U2OS/ETAR-GFP. Format: cell-based, human.
For a further experiment, the system named is CHO/ETAR cells. The experiment in a line: Lectin labeling of live cells, CHO/ETAR. Format: cell-based. The note with it: TRITC-lectin, 10 nM at maximum. Here is the method:
as §2, §1

The subject of experiment [4] is CHO/ETAR cell membrane protein. The experiment in a line: Lectin blotting of ETAR membrane sample. The experiment is classed as binding. Here is the method: Membrane preparation was conducted as follows: Cells were cultured in five T175 flasks until confluency. Confluent cells were detached by applying 3 ml of EDTA solution onto the PBS washed cells. Following a 20-minute incubation at 37° C. and 5% CO2, cells were resuspended in 12 ml of starvation medium (standard medium without FCS), counted, and centrifuged in a Heraeus Megafuge 1.0R at 133 rcf for 4 minutes. All subsequent steps were carried out on ice and with ice cold solutions. After unification of all pellet fractions, hypotonic lysis buffer was added to the cells at a ratio of 1 ml per 5*10^7 cells. Additionally, protease inhibitor cocktail was added to 50 μl per 5*10^7 cells. Cells were homogenized with 30 strokes in a 5 ml potter on ice, centrifuged at 4° C. and 917 rcf for 10 minutes, and the supernatant was stored in an ultracentrifuge tube on ice. The pellet fraction was homogenized and centrifuged once again as described above. The supernatants of both procedures were unified and centrifuged at 4° C. and 100,000 rcf for 45 minutes in a Sorvall ultra-centrifuge. The supernatant of this centrifugation procedure was withdrawn and the pellet dissolved in 0.5 ml or 1.0 ml modified SDS PAGE loading buffer containing Tris-HCl, SDS, glycerol, but no β-mercapto-ethanol or dyes and stored in small aliquots of 50 μl at −20° C.
SDS-Page of membrane samples was conducted as follows: Discontinuous 12% polyacrylamide gels were prepared according to a standard protocol. Broad range marker and 25 μg membrane protein were mixed 1:1 with loading buffer and loaded five times onto a mini gel in alternating order. The gels were run at U=100 V for the first 20 minutes. Subsequently, voltage was increased to U=150 V. The run was aborted as soon as the pyronin G band reached the end of the gel. For coomassie staining, gels were put in coomassie staining solution on a shaker at low revolutions for 45 min. The staining solution was removed and the gel incubated with destaining solution for one to two hours, exchanging the solution several times until the desired contrast was obtained. […]

Consider “succinylated Triticum vulgaris (wheat germ) agglutin [sWGA]”, for which, in the experiment with U2OS/ETAR-GFP cells [1], the “Staining of U2OS/ETAR-GFP” value is listed as “extensive fluorescence was observed at the cell surface”. Besides, the “Live cell staining of U2OS/ETAR-GFP” value in the experiment on U2OS/ETAR-GFP cells [2] is “spot formation”. The “delay in spot formation” value in the experiment with U2OS/ETAR-GFP cells [3] (pH 6.8, U2OS cells) turned out to be 20 min. In the experiment with U2OS/ETAR-GFP cells [3] (pH 8.0, U2OS cells), the “spot formation at increased pH” value was “accelerated”. In addition, the “Live cell staining of CHO/ETAR” value in the experiment on CHO/ETAR cells was “single spot formation continued fairly slowly”. In addition, in experiment [4] (ETAR sample), the “bands that stood out below 35 kDa” value is given as “five”. Further, the “band at the same height as in the western (47 kDa, anti-ETAR)” value in experiment [4] (biotinylated lectin 5 μg/ml) is reported as “very faint band”.
